Experimental data published in patent US20250188032A1, “NITROGEN-CONTAINING HETEROCYCLIC COMPOUNDS AND USES THEREOF” (BNH RESEARCH CO., LTD., priority 2022, published 2025).

Tested on: 293T cells
Assay: Cytotoxicity test (CCK-8 cell viability) in 293T cells
Assay type: cell-based, human
Settings: 24 hours co-incubation, 293T cell line, % of control
Experimental: Human undifferentiated neuroblastoma cell line SH-SY5Y and human embryonic kidney cell line (HEK)-293T were purchased from Korean Cell Line Bank (Korea) and Takara (Japan), respectively. Cells were grown in HyClone Minimal Essential Medium (MEM) and Dulbecco's Modified Eagle Medium (DMEM), respectively, supplemented with 10% (v/v) fetal bovine serum (FBS), penicillin (100 U/mL), and streptomycin ([…]). Cells were maintained in a humidified atmosphere of 95% air and 5% CO2 at 37° C. Cells were passaged 10 times at maximum. Cells were dissociated using 0.05% trypsin-EDTA solution and the cells were seeded in new culture dishes for maintenance.
To examine the cytotoxicity of compounds described herein in human cell lines, SH-SY5Y and 293T cells were used. Approximately 8,000 cells (for 293T) and 15,000 cells (for SH-SY5Y) were plated per well of a 96-well plate (SPL Life Sciences Co., Ltd., Pocheon, Korea). After incubating at 37° C. for 24 hours in a humidified atmosphere containing 5% CO2, the culture medium was replaced by a series of concentrations of test compounds diluted in the corresponding culture medium. The time of co-incubation was 24 hours and six replicates were made for each measurement. Finally, 10 μL of CCK-8 reagent (Dojindo Laboratories, Rockville, MD) was added to each well, and after incubation at 37° C. for 3 minutes, the OD at 450 nm was measured using a multifunction microplate reader (Tecan Infinite M200 Pro). These measurements were compared to that of a control and expressed as a percentage of the control to calculate cell viability. The IC50 value was calculated using SPSS software. To do this, the absorbance of the blank wells with only growth medium is subtracted from the values or the wells with cells. The readout value of background (vehicle) was set as a 100% viability, and then the percent viability for each test solution was calculated.
Cell viability (%)=[(As-Ab)/(Ac-Ab)]×100
The data was presented as the mean value and standard error of the mean (S.E.M.). Statistical analysis was performed with the one-way ANOVA with Tukey's post hoc test (GraphPad Prism 5 software package, version 5.02, GraphPad Software Inc. USA). Significance was accepted at p<0.05.

SMILES: C[C@H]1CC[C@@H](C(=O)O)CN1C(=O)Cc1ccc(C(C)(C)C)cc1 [BnH12029, (3R,6S)-1-(2-(4-(tert-butyl)phenyl)acetyl)-6-methylpiperidine-3-carboxylic acid]
- Cell viability test results (CCK) 10 uM: 99%<
- Cell viability test results (CCK) 100 uM: 80%<

SMILES: C[C@H]1CC[C@@H](C(=O)O)CN1C(=O)Cc1cccc(Cl)c1 [BnH12026, (3R,6S)-1-(2-(3-chlorophenyl)acetyl)-6-methylpiperidine-3-carboxylic acid]
- Cell viability test results (CCK) 10 uM: 99%<
- Cell viability test results (CCK) 100 uM: 99%<

SMILES: O=C(NO)[C@H]1CCCN1C(=O)Cc1ccc(F)cc1Cl [BnH12014, (R)-1-(2-(2-chloro-4-fluorophenyl)acetyl)-N-hydroxypyrrolidine-2-carboxamide]
- Cell viability test results (CCK) 10 uM: 99%<
- Cell viability test results (CCK) 100 uM: 90%<

SMILES: C[C@@H]1CC[C@H](C(=O)O)CN1C(=O)Cc1ccccc1 [BnH12062, (3S,6R)-6-methyl-1-(2-phenylacetyl)piperidine-3-carboxylic acid]
- Cell viability test results (CCK) 10 uM: 85%<
- Cell viability test results (CCK) 100 uM: 75%<

SMILES: C[C@H]1CC[C@@H](C(=O)O)CN1C(=O)Cc1ncccn1 [BnH12041, (3R,6S)-6-methyl-1-(2-(pyrimidin-2-yl)acetyl)piperidine-3-carboxylic acid]
- Cell viability test results (CCK) 10 uM: 90%<
- Cell viability test results (CCK) 100 uM: 70%<

SMILES: CCC(=O)N1C[C@H](C(=O)O)CC[C@@H]1C [BnH12008, (3R,6S)-6-methyl-1-propionylpiperidine-3-carboxylic acid]
- Cell viability test results (CCK) 10 uM: 95%<
- Cell viability test results (CCK) 100 uM: 90%<

SMILES: O=C(O)[C@@H]1CCCN(C(=O)Cc2ccc(F)cc2Cl)C1 [BnH12004, (R)-1-(2-(2-chloro-4-fluorophenyl)acetyl)piperidine-3-carboxylic acid]
- Cell viability test results (CCK) 10 uM: 95%<
- Cell viability test results (CCK) 100 uM: 85%<

SMILES: CCC1CCC(C(=O)O)CN1C(=O)Cc1ccc(F)cc1Cl (stereo not drawn) [BnH12094, 1-(2-(2-chloro-4-fluorophenyl)acetyl)-6-ethylpiperidine-3-carboxylic acid]
- Cell viability test results (CCK) 10 uM: 80%<
- Cell viability test results (CCK) 100 uM: 70%<

SMILES: C[C@H]1CC[C@@H](C(=O)O)CN1C(=O)Cc1cncnc1 [BnH12040, (3R,6S)-6-methyl-1-(2-(pyrimidin-5-yl)acetyl)piperidine-3-carboxylic acid]
- Cell viability test results (CCK) 10 uM: 85%<
- Cell viability test results (CCK) 100 uM: 80%<

SMILES: Cc1ccc(CC(=O)N2C[C@H](C(=O)O)CC[C@@H]2C)cc1 [BnH12024, (3R,6S)-6-methyl-1-(2-(p-tolyl)acetyl)piperidine-3-carboxylic acid]
- Cell viability test results (CCK) 10 uM: 99%<
- Cell viability test results (CCK) 100 uM: 99%<

SMILES: C[C@H]1CC[C@@H](C(N)=O)CN1C(=O)Cc1ccc(F)cc1Cl [BnH12022, (3R,6S)-1-(2-(2-chloro-4-fluorophenyl)acetyl)-6-methylpiperidine-3-carboxamide]
- Cell viability test results (CCK) 10 uM: 99%<
- Cell viability test results (CCK) 100 uM: 99%<

SMILES: C[C@H]1CC[C@@H](C(=O)O)CN1C(=O)Cc1ccc(Cl)cc1 [BnH12023, (3R,6S)-1-(2-(4-chlorophenyl)acetyl)-6-methylpiperidine-3-carboxylic acid]
- Cell viability test results (CCK) 10 uM: 95%<
- Cell viability test results (CCK) 100 uM: 80%<

SMILES: O=C(O)[C@H]1CCCN1C(=O)Cc1ccc(F)cc1Cl [BnH12012, (2-(2-chloro-4-fluorophenyl)acetyl)-D-proline]
- Cell viability test results (CCK) 10 uM: 95%<
- Cell viability test results (CCK) 100 uM: 90%<

SMILES: C[C@H]1CC[C@@H](C(=O)O)CN1C(=O)c1ccc(F)cc1Cl [BnH12011, (3R,6S)-1-(2-chloro-4-fluorobenzoyl)-6-methylpiperidine-3-carboxylic acid]
- Cell viability test results (CCK) 10 uM: 95%<
- Cell viability test results (CCK) 100 uM: 95%<

SMILES: O=C(NO)[C@@H]1CCCN1C(=O)c1ccccc1 [BnH12019, (S)-1-Benzoyl-N-hydroxypyrrolidine-2-carboxamide]
- Cell viability test results (CCK) 10 uM: 99%<
- Cell viability test results (CCK) 100 uM: 90%<

SMILES: Cc1cccc(CC(=O)N2C[C@H](C(=O)O)CC[C@@H]2C)c1 [BnH12030, (3R,6S)-6-methyl-1-(2-(m-tolyl)acetyl)piperidine-3-carboxylic acid]
- Cell viability test results (CCK) 10 uM: 95%<
- Cell viability test results (CCK) 100 uM: 85%<

SMILES: C[C@H]1CC[C@@H](C(=O)[O-])CN1C(=O)Cc1ccncc1.[Na+] [BnH12033, Sodium (3R,6S)-6-methyl-1-(2-(pyridin-4-yl)acetyl)piperidine-3-carboxylate]
- Cell viability test results (CCK) 10 uM: 90%<
- Cell viability test results (CCK) 100 uM: 65%<

SMILES: O=C(O)[C@@H]1CCCN1C(=O)Cc1ccc(F)cc1Cl [BnH12013, (2-(2-chloro-4-fluorophenyl)acetyl)-L-proline]
- Cell viability test results (CCK) 10 uM: 99%<
- Cell viability test results (CCK) 100 uM: 99%<

SMILES: COc1ccc(CC(=O)N2C[C@H](C(=O)O)CC[C@@H]2C)cn1 [BnH12075, (3R,6S)-1-(2-(6-methoxypyridin-3-yl)acetyl)-6-methylpiperidine-3-carboxylic acid]
- Cell viability test results (CCK) 10 uM: 99%<
- Cell viability test results (CCK) 100 uM: 99%<

SMILES: COC(=O)[C@@H]1CC[C@H](C)N(C(=O)Cc2ccc(F)cc2Cl)C1 [BnH12020, Methyl (3R,6S)-1-(2-(2-chloro-4-fluorophenyl)acetyl)-6-methylpiperidine-3-carboxylate]
- Cell viability test results (CCK) 10 uM: 95%<
- Cell viability test results (CCK) 100 uM: 95%<

SMILES: CCOC(=O)[C@@H]1CC[C@H](C)N(C(=O)Cc2ccc(F)cc2Cl)C1 [BnH12021, Ethyl (3R,6S)-1-(2-(2-chloro-4-fluorophenyl)acetyl)-6-methylpiperidine-3-carboxylate]
- Cell viability test results (CCK) 10 uM: 90%<
- Cell viability test results (CCK) 100 uM: 80%<

SMILES: C[C@H]1CC[C@@H](C(=O)O)CN1C(=O)Cc1ccc(Br)cc1 [BnH12032, (3R,6S)-1-(2-(4-bromophenyl)acetyl)-6-methylpiperidine-3-carboxylic acid]
- Cell viability test results (CCK) 10 uM: 99%<
- Cell viability test results (CCK) 100 uM: 95%<

SMILES: C[C@H]1CC[C@@H](C(=O)O)CN1C(=O)Cc1cccs1 [BnH12034, (3R,6S)-6-methyl-1-(2-(thiophen-2-yl)acetyl)piperidine-3-carboxylic acid]
- Cell viability test results (CCK) 10 uM: 90%<
- Cell viability test results (CCK) 100 uM: 85%<

SMILES: C[C@H]1CC[C@@H](C(=O)O)CN1C(=O)Cc1ccc(F)cc1 [BnH12031, (3R,6S)-1-(2-(4-fluorophenyl)acetyl)-6-methylpiperidine-3-carboxylic acid]
- Cell viability test results (CCK) 10 uM: 90%<
- Cell viability test results (CCK) 100 uM: 75%<

SMILES: C[C@H]1CC[C@@H](C(=O)O)CN1C(=O)Cc1ccc(N(C)C)cc1 [BnH12076, (3R,6S)-1-(2-(4-(dimethylamino)phenyl)acetyl)-6-methylpiperidine-3-carboxylic acid]
- Cell viability test results (CCK) 10 uM: 95%<
- Cell viability test results (CCK) 100 uM: 95%<

SMILES: C[C@H]1CC[C@@H](C(=O)O)CN1C(=O)Cc1ccc(Cl)c(Cl)c1 [BnH12028, (3R,6S)-1-(2-(3,4-dichlorophenyl)acetyl)-6-methylpiperidine-3-carboxylic acid]
- Cell viability test results (CCK) 10 uM: 90%<
- Cell viability test results (CCK) 100 uM: 80%<

SMILES: C[C@H]1CC[C@@H](C(=O)O)CN1C(=O)Cc1ccco1 [BnH12035, (3R,6S)-1-(2-(furan-2-yl)acetyl)-6-methylpiperidine-3-carboxylic acid]
- Cell viability test results (CCK) 10 uM: 90%<
- Cell viability test results (CCK) 100 uM: 85%<
